Laboratory results: US10426169B2 (priority 2011, dated 2019)

System: not listed separately
Experiment: physchem
Details: pH 2.7
Excerpt: The LC-MS determination in the acidic range is effected at pH 2.7 with 0.1% aqueous formic acid and acetonitrile (contains 0.1% formic acid) as eluents; linear gradient from 10% acetonitrile to 95% acetonitrile. • ^[b] The LC-MS determination in the neutral range is effected at pH 7.8 using 0.001 molar aqueous ammonium hydrogencarbonate solution and acetonitrile as eluents; linear gradient from 10% acetonitrile to 95% acetonitrile.
The calibration is effected with unbranched alkan-2-ones (having 3 to 16 carbon atoms) with known log P values (log P values determined on the basis of the retention times by linear interpolation between two successive alkanones).

Compared with `COC(C)(OC)C(CC(O)c1ccccc1OCC#C[Si](C)(C)C)=NO` (stereo not drawn) [1-hydroxyl-4,4-dimethoxy-1-(2-{[3-(trimethylsilyl)prop-2-yn-1-yl]oxy}phenyl)pentan-3-one oxime], `C#CCOc1ccccc1C1CC(C(C)=O)=NO1` (stereo not drawn) [VIIIa-a-81, 1-[5-(2-{[prop-2-yn-1-yl]oxy}phenyl)-4,5-dihydro-1,2-oxazol-3-yl]ethanone] is higher in chromatographic logP: 3.19 for the first, 4.41 for the second.

`CC(C)=NOCC(=O)N1CCC(c2nc(-c3cc(-c4ccccc4C=O)on3)cs2)CC1` [I-8, 2-{3-[2-(1-{[(Propan-2-ylideneamino)oxy]acetyl}piperidin-4-yl)-1,3-thiazol-4-yl]-1,2-oxazol-5-yl}benzaldehyde] and `CC(C)=NOCC(=O)N1CCC(c2nc(C3=NOC(c4ccccc4OS(C)(=O)=O)C3)cs2)CC1` (stereo not drawn) [I-12, 2-{3-[2-(1-{[(Propan-2-ylideneamino)oxy]acetyl}piperidin-4-yl)-1,3-thiazol-4-yl]-4,5-dihydro-1,2-oxazol-5-yl}phenyl methanesulphonate] are within 0.2 log units of each other in chromatographic logP: 2.45 for the first, 2.36 for the second.

Going from `CS(=O)(=O)Oc1cc(C(F)(F)F)ccc1C1CC(C(=O)CCl)=NO1` (stereo not drawn) [VIIa-a-143, 2-[3-(Chloroacetyl)-4,5-dihydro-1,2-oxazol-5-yl]-5-(trifluoromethyl)phenyl methanesulphonate] to `CC(C)(C)OC(=O)N1CCC(c2nc(C3=NOC(c4ccc(C(F)(F)F)cc4OS(C)(=O)=O)C3)cs2)CC1` (stereo not drawn) [XVI-143, tert-Butyl 4-[4-(5-{2-[(methylsulphonyl)oxy]-4-(trifluoromethyl)phenyl}-4,5-dihydro-1,2-oxazol-3-yl)-1,3-thiazol-2-yl]piperidine-1-carboxylate], the chromatographic logP rises from 3.25 to 4.36.

First: CN(C)CC(=O)N1CCC(c2nc(C3=NOC(c4ccccc4OS(C)(=O)=O)C3)cs2)CC1 (stereo not drawn) [X-1, 2-(3-{2-[1-(N,N-Dimethylglycyl)piperidin-4-yl]-1,3-thiazol-4-yl}-4,5-dihydro-1,2-oxazol-5-yl)phenyl methanesulphonate]
Second: CS(=O)(=O)Oc1ccccc1C1CC(c2csc(C3CCN(C(=O)CO)CC3)n2)=NO1 (stereo not drawn) [XXVIIa-142, 2-{3-[2-(1-glycoloylpiperidin-4-yl)-1,3-thiazol-4-yl]-4,5-dihydro-1,2-oxazol-5-yl}phenyl methanesulphonate]
The chromatographic logP of the first is lower: 1.48 for the first, 1.88 for the second.

Going from `CC(C)(C)[Si](C)(C)OCC(=O)N1CCC(c2nc(C3=NOC(c4ccccc4OS(C)(=O)=O)C3)cs2)CC1` (stereo not drawn) [X-2, 2-(3-{2-[1-({[tert-butyl(dimethyl)silyl]oxy}acetyl)piperidin-4-yl]-1,3-thiazol-4-yl}-4,5-dihydro-1,2-oxazol-5-yl)phenyl methanesulphonate] to `CC(=O)OCC(=O)N1CCC(c2nc(C3=NOC(c4ccccc4OS(C)(=O)=O)C3)cs2)CC1` (stereo not drawn) [X-3, 2-{4-[4-(5-{2-[(Methylsulphonyl)oxy]phenyl}-4,5-dihydro-1,2-oxazol-3-yl)-1,3-thiazol-2-yl]piperidin-1-yl}-2-oxoethyl acetate], the chromatographic logP falls from 4.14 to 2.18.

With `CS(=O)(=O)Oc1ccccc1C1CC(c2csc(C3CCN(C(=O)CCl)CC3)n2)=NO1` (stereo not drawn) [Xc-a-142, 2-(3-{2-[1-(Chloroacetyl)piperidin-4-yl]-1,3-thiazol-4-yl}-4,5-dihydro-1,2-oxazol-5-yl)phenyl methanesulphonate] the chromatographic logP was 2.42.

System: Phytophthora infestans
Experiment: not given
Assay type: in vivo, Phytophthora infestans on young tomato plants
Details: protective, tomato plants, active ingredient concentration 100 ppm, evaluation 7 days after inoculation; 0% = control, 100% = no infection

`CC(C)=NOCC(=O)N1CCC(c2nc(-c3cc(-c4ccccc4C=O)on3)cs2)CC1` [I-8, 2-{3-[2-(1-{[(Propan-2-ylideneamino)oxy]acetyl}piperidin-4-yl)-1,3-thiazol-4-yl]-1,2-oxazol-5-yl}benzaldehyde] gave an Eff. % of 89%.
